According to ChEMBL document CHEMBL4673283, “Penisarins A and B, Sesquiterpene Coumarins Isolated from an Endophytic Penicillium sp” (J Nat Prod, 2020):
Active and inactive are the calls of the source. The calls are words filed in the database; no cut-off is given here.

Legend:
Format in all cases: functional, cell-based
SMMC-7721 = assay: Cytotoxicity against human SMMC-7721 cells assessed as reduction in cell viability after 48 hrs by MTS assay; settings: SMMC-7721, 48 h
MCF7 = assay: Cytotoxicity against human MCF7 cells assessed as reduction in cell viability after 48 hrs by MTS assay; settings: MCF7, 48 h
A549 = assay: Cytotoxicity against human A549 cells assessed as reduction in cell viability after 48 hrs by MTS assay; settings: A549, 48 h
RAW264.7 = assay: Inhibition of LPS-induced NO production in mouse RAW264.7 cells at 50 uM incubated for 18 hrs by Griess reagent based assay
HL-60 = assay: Cytotoxicity against human HL-60 cells assessed as reduction in cell viability after 48 hrs by MTS assay; settings: HL-60, 48 h
SW480 = assay: Cytotoxicity against human SW480 cells assessed as reduction in cell viability after 48 hrs by MTS assay; settings: SW480, 48 h

Compound	IC50 (SMMC-7721) [µM]	IC50 (MCF7) [µM]	IC50 (A549) [µM]	inhibition (RAW264.7)	IC50 (HL-60) [µM]	IC50 (SW480) [µM]
COc1cc(C)c2c3c(c(=O)oc2c1)C[C@@H]([C@@]1(C)CC[C@H]2C(C)(C)C(=O)CC[C@@]21C)O3	> 40	> 40	> 40	inactive	> 40	> 40
COc1cc(C)c2c3c(c(=O)oc2c1)C[C@@H]([C@@]1(C)CC[C@H]2C(C)(C)[C@@H](O)CC[C@@]21C)O3	3.7	13	15.3	inactive	3.6	27.1
